# Measurements from patent publication US20260209189A1, “ISOXAZOLINE-SUBSTITUTED BENZAMIDE COMPOUND AND APPLICATION THEREOF” (priority 2022, published 2026).
# Like-named read-outs stand apart in the source and are kept apart here.
# Legend:
# Type in all cases: in vivo
# Tetranychus urticae = test: Insecticidal activity assay, peanut leaf dip, adult mite; settings: 48 h
# Method: (§1) The compound of the present invention was dissolved in acetone, and then diluted with water into liquids with gradients of different concentrations (ppm). Corn leaves were soaked in liquids of different concentrations for about 20 seconds, air-dried and then placed in petri dishes where 3rd instar Spodoptera frugiperda were placed, respectively; kale leaves were soaked in liquids of different concentrations for about 20 seconds, air-dried and then placed in petri dishes where 3rd instar Spodoptera frugiperda were placed, respectively; peanut leaves were soaked in liquids of different concentrations for about 20 seconds, air-dried and then placed in petri dishes where Tetranychus urticae (adult mite) and Aphis craccivora (adult aphid) were placed, respectively; water bamboo leaves were soaked in liquids of different concentrations for about 20 seconds, air-dried and then placed in petri dishes where 4th instar Chilo suppressalis were placed, respectively. Each petri dish was placed with 10 insects, covered and then stored at 25° C. in a constant temperature room. The number of dead insects were checked after 48 h. The dead insect rate was calculated by the formula: Death rate (%)=(Number of dead insects/Number of test insects)×100. Furthermore, the experiment was conducted in two replications.
# Spodoptera frugiperda [1] = test: Insecticidal activity assay, corn leaf dip, 3rd instar larvae; settings: liquid concentration 0.3 ppm, 48 h
# Method: as §1
# Spodoptera exigua = test: Insecticidal activity assay, kale leaf dip, 3rd instar larvae; settings: liquid concentration 0.3 ppm, 48 h
# Spodoptera frugiperda [2] = test: Assay of insecticidal activity of compositions (synergism), 3rd instar; settings: for pest or weed control at 1 µg/mL: B 1 ppm; for pest or weed control at 50 µg/mL: B 50 ppm
# Method: as §1
# • Test targets: Spodoptera frugiperda (3rd instar) and Aphis gossypii (adult aphid) […]
# (§2) Different ratios within the selected ratio range were set for toxicity determination, and the optimal ratio was selected according to synergistic effects. When the synergistic effect >0, it indicated a synergistic effect; when the synergistic effect is close to 0, it indicated an addition effect; when the synergistic effect <0, it indicated an antagonistic effect.
# (§3) [formula] • wherein, P1, P2—Death rate by each individual agent in a mixed formulation.
# Aphis gossypii = test: Assay of insecticidal activity of compositions (synergism), zucchini leaves, adult aphid; settings: for pest or weed control at 5 µg/mL: B 5 ppm
# Method: as §1
# • Test targets: Spodoptera frugiperda (3rd instar) and Aphis gossypii (adult aphid)
# Referring to the above-mentioned Insecticidal activity assay, when the test target was Aphis gossypii, the zucchini leaves were selected.
# as §2, §3
# Aphis craccivora = test: Insecticidal activity assay, peanut leaf dip, adult aphid; settings: liquid concentration 8.1 ppm, 48 h
# Method: as §1
# [3] = 48 h, read-out: Death rate by individual B
# [4] = 48 h, B 2 ppm, read-out: Death rate by individual B
# [5] = in Cucurbita pepo, 48 h, B 1 ppm, read-out: Death rate by individual B
# [6] = in Cucurbita pepo, 48 h, read-out: Death rate by individual B
molecule,measurement,setting,value
C=CCOC(=O)C(C)NC(=O)c1ccc(C2=NOC(c3cc(Cl)c(Cl)c(C(F)(F)F)c3)(C(F)(F)F)C2)cc1C (mixture of isomers) [41 (2R)],Death rate,Tetranychus urticae; liquid concentration 0.9 ppm,75%
C#CCOC(=O)C(C)NC(=O)c1ccc(C2=NOC(c3cc(Cl)c(Cl)c(C(F)(F)F)c3)(C(F)(F)F)C2)cc1C (mixture of isomers) [43 (2R)],Death rate,Tetranychus urticae; liquid concentration 0.9 ppm,85%
Cc1cc(C2=NOC(c3cc(Cl)c(Cl)c(C(F)(F)F)c3)(C(F)(F)F)C2)ccc1C(=O)NC(C)C(=O)OCCO (mixture of isomers) [57 (2R)],Death rate,Tetranychus urticae; liquid concentration 8.1 ppm,90%
COC(=O)C(Cc1ccccc1)NC(=O)c1ccc(C2=NOC(c3cc(Cl)c(Cl)c(C(F)(F)F)c3)(C(F)(F)F)C2)cc1C (mixture of isomers) [131 (2R)],Death rate,Tetranychus urticae; liquid concentration 8.1 ppm,80%
COC(=O)C(C)NC(=O)c1ccc(C2=NOC(c3cc(Cl)c(Cl)c(C(F)(F)F)c3)(C(F)(F)F)C2)cc1C(C)C (mixture of isomers) [141 (2R)],Death rate,Spodoptera frugiperda [1],90%
COC(=O)C(CC(N)=O)NC(=O)c1ccc(C2=NOC(c3cc(Cl)c(Cl)c(C(F)(F)F)c3)(C(F)(F)F)C2)cc1C (mixture of isomers) [179 (2R)],Death rate,Tetranychus urticae; liquid concentration 8.1 ppm,80%
COC(=O)C(CCSC)NC(=O)c1ccc(C2=NOC(c3cc(Cl)c(Cl)c(C(F)(F)F)c3)(C(F)(F)F)C2)cc1C (mixture of isomers) [180 (2R)],Death rate,Tetranychus urticae; liquid concentration 8.1 ppm,45%
COC(=O)C(C)NC(=O)c1ccc(C2=NOC(c3cc(F)c(F)c(C(F)(F)F)c3)(C(F)(F)F)C2)cc1C (mixture of isomers) [181 (2R)],Death rate,Tetranychus urticae; liquid concentration 8.1 ppm,70%
COC(=O)C(C)NC(=O)c1ccc(C2=NOC(c3cc(Cl)c(OC)c(C(F)(F)F)c3)(C(F)(F)F)C2)cc1C (mixture of isomers) [183 (2R)],Death rate,Spodoptera frugiperda [1],100%
same,Death rate,Spodoptera exigua,100%
COC(=O)C(C)NC(=O)c1ccc(C2=NOC(c3cc(Cl)c(SC)c(C(F)(F)F)c3)(C(F)(F)F)C2)cc1C (mixture of isomers) [187 (2R)],Death rate,Tetranychus urticae; liquid concentration 8.1 ppm,63%
"Cc1c(COC(=O)[C@@H]2[C@H](/C=C(\Cl)C(F)(F)F)C2(C)C)cccc1-c1ccccc1 (racemic) [Bifenthrin, reference compound]",pest or weed control at 1 µg/mL,Spodoptera frugiperda [2]; [3],22%
"CC1(C)[C@H](C(=O)O[C@H](C#N)c2cccc(Oc3ccccc3)c2)[C@@H]1/C=C(\Cl)C(F)(F)F (racemic) [lambda-cyhalothrin, lambda-Cyhalothrin, reference compound]",pest or weed control at 2 µg/mL,Spodoptera frugiperda [2]; [4],41%
"COP(=O)(NC(C)=O)SC (stereo not shown) [Acephate, reference compound]",pest or weed control at 300 µg/mL,Spodoptera frugiperda [2]; [3],38%
"C/C(=N\C#N)N(C)Cc1ccc(Cl)nc1 [Acetamiprid, reference compound]",pest or weed control at 1 µg/mL,Aphis gossypii; [5],52%
"C[C@]1(COC(=O)C2CC2)[C@@H]2C[C@H](O)[C@@]3(C)Oc4cc(-c5cccnc5)oc(=O)c4[C@H](O)[C@@H]3[C@@]2(C)CC[C@@H]1OC(=O)C1CC1 [Afidopyropen, reference compound]",Death rate by individual B,Aphis gossypii; B 1 ppm,68%
"CC(C)N1C(=O)N(c2ccccc2)CS/C1=N\C(C)(C)C [Buprofezin, reference compound]",pest or weed control at 10 µg/mL,"Spodoptera frugiperda [2]; 48 h, B 10 ppm, read-out: Death rate by individual B",36%
"CNC(=O)c1cc(Cl)cc(C)c1NC(=O)c1cc(Br)nn1-c1ncccc1Cl [Chlorantraniliprole, reference compound]",pest or weed control at 0.5 µg/mL,"Spodoptera frugiperda [2]; 48 h, B 0.5 ppm, read-out: Death rate by individual B",50%
"CCOCn1c(-c2ccc(Cl)cc2)c(C#N)c(Br)c1C(F)(F)F [Chlorfenapyr, reference compound]",pest or weed control at 50 µg/mL,Spodoptera frugiperda [2]; [3],59%
"CN/C(=N\[N+](=O)[O-])NCc1cnc(Cl)s1 [Clothianidin, reference compound]",pest or weed control at 5 µg/mL,Aphis gossypii; [6],42%
COC(=O)[C@@H](C)N(C)C(=O)c1ccc(C2=NOC(c3cc(Cl)c(Cl)c(C(F)(F)F)c3)(C(F)(F)F)C2)cc1C (stereo partly drawn) [Compound 4 (2R)],Death rate,Spodoptera frugiperda [1],100%
CCOC(=O)[C@@H](C)NC(=O)c1ccc(C2=NOC(c3cc(Cl)c(Cl)c(C(F)(F)F)c3)(C(F)(F)F)C2)cc1C (stereo partly drawn) [Compound 30 (2R)],Death rate,Spodoptera frugiperda [1],90%
same,Death rate,Tetranychus urticae; liquid concentration 0.9 ppm,80%
COC(=O)C(NC(=O)c1ccc(C2=NOC(c3cc(Cl)c(Cl)c(C(F)(F)F)c3)(C(F)(F)F)C2)cc1C)C(C)C (stereo not shown) [Compound 111],Death rate,Aphis craccivora,40%
same,Death rate,Spodoptera exigua,60%
COC(=O)C(NC(=O)c1ccc(C2=NOC(c3cc(Cl)c(Cl)c(C(F)(F)F)c3)(C(F)(F)F)C2)cc1C)C1CC1 (stereo not shown) [Compound 118],Death rate,Aphis craccivora,40%
same,Death rate,Spodoptera exigua,60%
COC(=O)C(NC(=O)c1ccc(C2=NOC(c3cc(Cl)c(Cl)c(C(F)(F)F)c3)(C(F)(F)F)C2)cc1C)OC (stereo not shown) [Compound 124],Death rate,Spodoptera frugiperda [1],80%
same,Death rate,Tetranychus urticae; liquid concentration 8.1 ppm,77%
same,Death rate,Spodoptera exigua,70%
Cc1cc(C2=NOC(c3cc(Cl)c(Cl)c(C(F)(F)F)c3)(C(F)(F)F)C2)ccc1C(=O)N[C@H](C)C(=O)O (stereo partly drawn) [Compound 151 (2R)],Death rate,Tetranychus urticae; liquid concentration 8.1 ppm,100%
"Cc1cc(C2=NOC(c3cc(Cl)c(Cl)c(C(F)(F)F)c3)(C(F)(F)F)C2)ccc1C(=O)NC(C)C(=O)O [Compound 151 (5S, 2R)]",Death rate,Tetranychus urticae; liquid concentration 8.1 ppm,100%
"COC(=O)C(C)NC(=O)c1ccc(C2=NOC(c3cc(Cl)c(OC)c(C(F)(F)F)c3)(C(F)(F)F)C2)cc1C [Compound 183 (5S, 2R)]",Death rate,Tetranychus urticae; liquid concentration 8.1 ppm,70%
"CNC(=O)c1cc(C#N)cc(C)c1NC(=O)c1cc(Br)nn1-c1ncccc1Cl [Cyantraniliprole, reference compound]",pest or weed control at 5 µg/mL,Aphis gossypii; [6],36%
"CCn1nc(C)cc1/C(OC(=O)C(C)(C)C)=C(/C#N)c1ccc(C(C)(C)C)cc1 [Cyetpyrafen, reference compound]",Death rate by individual B,Spodoptera frugiperda [2]; B 100 ppm,30%
"CC(C)c1cc(Oc2ccccc2)cc(C(C)C)c1NC(=S)NC(C)(C)C [Diafenthiuron, reference compound]",pest or weed control at 100 µg/mL,Spodoptera frugiperda [2]; [3],49%
"CN/C(=N/CC1CCOC1)N[N+](=O)[O-] (stereo not shown) [Dinotefuran, reference compound]",pest or weed control at 5 µg/mL,Aphis gossypii; [6],40%
"CC[S+]([O-])c1c(C#N)nn(-c2c(Cl)cc(C(F)(F)F)cc2Cl)c1N (stereo not shown) [Ethiprole, reference compound]",pest or weed control at 5 µg/mL,Aphis gossypii; [6],33%
"N#Cc1nn(-c2c(Cl)cc(C(F)(F)F)cc2Cl)c(N)c1[S+]([O-])C(F)(F)F (stereo not shown) [Fipronil, reference compound]",pest or weed control at 1 µg/mL,Spodoptera frugiperda [2]; [3],43%
"O=[N+]([O-])NC1=NCCN1Cc1ccc(Cl)nc1 [Imidacloprid, reference compound]",pest or weed control at 1 µg/mL,Aphis gossypii; [5],53%
"COC(=O)N(C(=O)N1CO[C@@]2(C(=O)OC)Cc3cc(Cl)ccc3C2=N1)c1ccc(OC(F)(F)F)cc1 [Indoxacarb, reference compound]",Death rate by individual B,Spodoptera frugiperda [2]; B 0.5 ppm,36%
"O=C(NC(=O)c1c(F)cccc1F)Nc1cc(Cl)c(OC(F)(F)C(F)C(F)(F)F)cc1Cl (stereo not shown) [Lufenuron, reference compound]",pest or weed control at 50 µg/mL,Spodoptera frugiperda [2]; [3],38%
"COc1cccc(C(=O)NN(C(=O)c2cc(C)cc(C)c2)C(C)(C)C)c1C [Methoxyfenozide, reference compound]",pest or weed control at 2 µg/mL,Spodoptera frugiperda [2]; [4],31%
"CCN(Cc1ccc(Cl)nc1)/C(=C/[N+](=O)[O-])NC [Nitenpyram, reference compound]",pest or weed control at 1 µg/mL,Aphis gossypii; [5],36%
"CC1=NNC(=O)N(/N=C/c2cccnc2)C1 [Pymetrozine, reference compound]",pest or weed control at 50 µg/mL,Spodoptera frugiperda [2]; [3],30%
"Cc1cc(C)c(C2=C(OC(=O)CC(C)(C)C)C3(CCCC3)OC2=O)c(C)c1 [Spiromesifen, reference compound]",Death rate by individual B,Spodoptera frugiperda [2]; B 100 ppm,49%
"CCOC(=O)OC1=C(c2c(C)cc(Cl)cc2C)C(=O)N(C)C12CCN(OC)CC2 [Spiropidion, reference compound]",Death rate by individual B,Spodoptera frugiperda [2]; B 2 ppm,39%
"CCOC(=O)OC1=C(c2cc(C)ccc2C)C(=O)N[C@]12CC[C@@H](OC)CC2 [Spirotetramat, reference compound]",pest or weed control at 100 µg/mL,"Spodoptera frugiperda [2]; 48 h, B 100 ppm, read-out: Death rate by individual B",47%
"CC(c1ccc(C(F)(F)F)nc1)S(C)(=O)=NC#N (stereo not shown) [Sulfoxaflor, reference compound]",pest or weed control at 2 µg/mL,"Aphis gossypii; in Cucurbita pepo, 48 h, B 2 ppm, read-out: Death rate by individual B",46%
"CN1COCN(Cc2cnc(Cl)s2)/C1=N\[N+](=O)[O-] [Thiamethoxam, reference compound]",pest or weed control at 1 µg/mL,Aphis gossypii; [5],64%
"CCc1nn(C)c(C(=O)NCc2ccc(Oc3ccc(C)cc3)cc2)c1Cl [Tolfenpyrad, reference compound]",pest or weed control at 1 µg/mL,Aphis gossypii; [5],35%
"O=c1c(-c2cccc(C(F)(F)F)c2)c([O-])[n+](Cc2cncnc2)c2ccccn12 [Triflumezopyrim, reference compound]",Death rate by individual B,Spodoptera frugiperda [2]; B 100 ppm,33%
Abamectin [reference compound],Death rate by individual B,Spodoptera frugiperda [2]; B 100 ppm,25%
Emamectin-benzoate [reference compound],Death rate by individual B,Spodoptera frugiperda [2]; B 2 ppm,37%
Spinetoram [reference compound],Death rate by individual B,Spodoptera frugiperda [2]; B 0.5 ppm,62%
